Experimental data published in patent US20260151398A1, “COMPOUNDS FOR REDUCING CHOLESTEROL AND TREATING LIVER AND KIDNEY DISEASE” (McMaster University, priority 2021, published 2026).
“Also recorded” adds a separate entry of the source.

Tests used:
SREBP2 = SREBP2 expression and activation in hepatocytes (real-time PCR, SRE-GFP reporter, immunoblot, immunofluorescence); type: cell-based, human, mouse; conditions: for activation and nuclear localization of SREBP2: immunoblots of whole-cell lysates
Description: (§1) Cells were washed in phosphate-buffered saline (PBS), lysed in 4× SDS-PAGE lysis buffer and separated on 7-10% polyacrylamide gels in denaturing conditions. Gels were transferred to nitrocellulose membranes using the BioRad mini trans-blot system, blocked in 5% skim milk in tris-buffered saline (TBS) for 1 h and incubated in primary antibody overnight for 16 h at 4° C. Membranes were then exposed to horse radish peroxidase conjugated secondary antibodies and visualized using EZ-ECL chemiluminescent reagent (Froggabio). Band intensities were quantified using ImageJ software ([…]) against membranes reprobed for housekeeping proteins.
Cells were plated in 4-well chamber slides and incubated in complete DMEM for 24 h and exposed to treatments 24 h later for an additional 24 h. Cells were fixed with 4% paraformaldehyde for 30 minutes and washed with either non-permeabilizing, or permeabilizing PBS containing 0.025% Triton-X. Cells were then blocked with 1% bovine serum albumin (BSA) for 30 minutes and stained with anti-GFP antibody for 1 h in PBS containing 1% BSA. Afterwards, cells were washed and incubated with Alexa 488 fluorescently-labelled secondary antibodies (Thermofisher Scientific), as well as the DAPI nuclear stain. Slides were then mounted with permafluor and visualized using the EVOS FL colour imaging system at either 20 or 40× magnification.
(§2) RNA purification/isolation was performed using RNeasy mini kits (Qiagen) and normalized to 2 μg RNA using a NanoDrop® spectrophotometer. Samples were then reverse transcribed into cDNA using Superscript Vilo cDNA Synthesis kit (Thermofisher Scientific). Real-time PCR was executed with Fast SYBR Green (Thermo Fisher Scientific) using the ΔΔct method on the ViiA7 real-time PCR platform (Thermofisher Scientific).
Therefore, the effect of CF on TG-; induced SREBP2 activation was examined. […] SREBP2 activity was then examined at the protein level in HuH7 cells transfected with a plasmid encoding GFP driven by the sterol regulatory element (SRE-GFP; FIG. 2E to G). […] GFP expression was also visualized via immunofluorescent staining and quantified using ImageJ Software.

ER Ca^2+ levels = assay: ER Ca2+ in HuH7 cells (D1ER, Mag-Fluo-4, TG-induced efflux); type: cell-based, human; conditions: TG 100 nM, CDN 100 μM, CF 200 μM, 24 h
Description: Intracellular Ca^2+ in Huh7 and HepG2 cells was measured using a high-affinity Ca^2+ indicator, Fura-2-AM (Thermofisher Scientific). ER Ca^2+ levels were assessed using the low-affinity Ca^2+ indicator, Mag-Fluo-4, and via transfection of cells with D1ER. The D1ER plasmid encodes an ER-resident calcium binding protein linked to a fluorescent protein and increases in fluorescence intensity upon Ca^2+ binding (7). For assessment using indicators, cells were plated in black clear-bottom 96-well plates to a confluence of 70-75% and treated with Ca^2+ modulating agents for 24 h (n=6). Cells were then washed and incubated with Fura-2-AM (2 μM) or Mag-Fluo-4 (2 μM) for 45 minutes at 37° C. in HBSS containing 20 mM HEPES and 2% pluronic acid v/v (Thermofisher Scientific). Fluorescence intensity of intracellular Fura-2-AM was measured at two distinct wavelengths (ex 340/em 515 and ex 380/em 515), following three consecutive washes, to assess bound and unbound states using a SpectraMax® GeminiEM fluorescent spectrophotometer (Molecular Devices, Sunnyvale, California, USA). Fluorescence intensity of Mag-Fluo-4 was quantified at a single wavelength (ex 495/em 515). […] Twenty-four h later, cells were treated with Ca^2+ modulating agents for an additional 24 h and quantified (ex 495/em 515) using a SpectraMax® GeminiEM fluorescent spectrophotometer.
Among the many intracellular effects of CF on the cell, its ability to increase intracellular Ca^2+ levels is well-studied (Echeverri, D., et al., 2010). […] ER Ca^2+ levels were then examined in cells transfected with D1ER; a genetically-encoded ER-resident fluorescence resonance energy transfer (FRET)-based […] chameleon Ca^2+ sensor, which increases in fluorescence intensity upon Ca^2+ binding (Palmer, A. E., et al., 2004). The low-affinity Ca^2+ indicator, Mag-Fluo-4, was also utilized for the direct assessment of ER Ca^2+ and increases in fluorescence intensity upon Ca^2+ binding (Diercks, B. P., et al., 2017; Lebeau, P., et al., 2021). […] ER Ca^2+ content was also assessed indirectly with the high affinity Ca^2+ dye, fura-2-AM (FIG. 6 B). […]

[1] = tested on: ER stress markers (GRP78, ATF4, pPERK, IRE1α, sXBP1, ATF6); assay: ER stress / UPR readouts in hepatocytes; type: cell-based, human
Description: as §1
Following treatment, live cells were incubated in complete DMEM containing 5 μM Thioflavin-T (ThT; Thermofisher Scientific) for 15 minutes. Cells were then fixed in 4% paraformaldehyde and mounted with permafluor. Fluorescent staining was visualized using the EVOS FL colour system at either 20 or 40× magnification.
as §2
Because ER Ca^2+ depletion induces a compensatory unfolded protein response (UPR), it was also postulated that CF may attenuate UPR marker expression by increasing ER Ca^2+ levels. […] Reactive oxygen species production, a process known to occur during conditions of ER stress, was also attenuated by CF (FIG. 9 H). […] While increasing the protein binding ability of chaperones, such as GRP78, CF also attenuates SREBP2-driven gene expression (FIG. 7 L).

SMILES	activation and nuclear localization of SREBP2 (SREBP2)	ER Ca^2+ levels (ER Ca^2+ levels)	TG-induced GRP78 expression ([1]; HuH7, with TG 100 nM)	GRP78 expression ([1]; HuH7, TG 100 nM, CPA 10 μM)	re-localization of SREBP2 to the nucleus (SREBP2; HuH7, TG-treated, immunofluorescence)	nuclear SREBP2 (nSREBP2) and SRE-driven GFP expression (SREBP2; HuH7 transfected with SRE-GFP, presence and absence of TG, listed as CF)	SREBP2 expression (SREBP2; PMH, PHH, HepG2, real-time PCR)	thioflavin-T-stained misfolded protein aggregates and FLAG-sXBP1 expression ([1]; HuH7)	reactive oxygen species production ([1]; HuH7, TG 100 nM)	expression of pPERK, IRE1α, sXBP1, ATF4 and ATF6 ([1]; HuH7, immunoblotting and real-time PCR, listed as CF)	mRNA of ER stress markers GRP78 and ATF4 ([1]; PHH, CF 200 μM)
Cc1ccc2cccc(NC(=O)c3ccc(OC(C)C)cc3)c2n1 [CDN]	antagonized the activation and nuclear localization of SREBP2	increased ER Ca^2+ levels	blocked TG-induced expression								
C/C=C(/C)C(=O)O[C@H]1C(C)=C2[C@H]([C@@H]1OC(=O)CCCCCCC)[C@@](C)(OC(C)=O)C[C@H](OC(=O)CCC)[C@@]1(O)[C@H]2OC(=O)[C@@]1(C)O [TG, thapsigargin]	opposite effect	reduced ER Ca^2+ levels		increased the expression of GRP78							
Cn1c(=O)c2c(ncn2C)n(C)c1=O [caffeine, 1,3,7-Trimethylxanthine]	antagonized the activation and nuclear localization of SREBP2	increased ER Ca^2+ levels			attenuated the re-localization of SREBP2	blocked the nuclear/activated isoform of SREBP2; also recorded: blocks SREBP2 activation	blocked the expression of SREBP2	blocked the accumulation of thioflavin-T-stained misfolded protein aggregates	attenuated	reduction in the expression of pPERK, IRE1α, sXBP1, ATF4 and ATF6; also recorded: protects against ER stress	reduction in mRNA transcript levels of ER stress markers
